Values joined by “and” are separate entries in the source; they are usually repeats but may differ in a detail not shown here. Identical values can stand only once.
System: 276233-004-R-J1-PDC spheroids with HUVEC/MSC, viability
Test: Anticancer human tumor 276233-004-R-J1-PDC patient-derived colon adenocarcinoma cell line growth inhibition [TAK]
Conditions: for viability, T/C: stronger effect = lower value
From the text: Combinatorial screen of targeted agents with TAK-243 and ipatasertib in multi-cell type tumor spheroids
A high-throughput screen of multi-cell type tumor spheroids was designed to identify active combinations of targeted small molecules and TAK-243 or ipatasertib. Complex spheroids include a stromal component modeled by human endothelial cells (HUVEC) and fibroblasts modeled by human mesenchymal stem cells (MSCs). The concentration ranges selected for each drug and investigational agent were based upon clinically achievable concentrations if the clinical Cmax of the agent was known.
Compounds. The drugs and investigational agents: TAK-243 (785004), ipatasertib (767898), everolimus (733504), selumetinib (741078), bortezomib (756655), trametinib (758246), ixazomib (758254), vemurafenib (761431), dabrafenib (764134), sapanisertib (764658), alpelisib (765974), and copanlisib (816437), were obtained from the National Cancer Institute (NCI) Developmental Therapeutics Program Chemical Repository. The FDA-approved anticancer drug set is available from the NCI Developmental Therapeutics Program. […] The stock solutions were prepared in dimethyl sulfoxide (DMSO, Sigma-Aldrich, St. Louis, MO, cat. D2650) at 800-fold the tested concentration and stored at -70 degrees C prior to their use. All drugs and investigational agents were tested over a range starting from a high concentration at or near the clinical Cmax and decreasing in half-log increments. If the clinical Cmax for an agent had not been determined, the highest concentration tested was 10 microM.
NCI60 Cell Culture. NCI60 cell lines were obtained from the NCI Developmental Therapeutics Program Tumor Repository. For each lot of cells, the Repository performed Applied Biosystems AmpFLSTR Identifiler testing with PCR amplification to confirm consistency with the published Identifier STR profile for each cell line. Cells were kept in continuous culture for no more than 20 passages. The optimal seeding densities for each of the cell lines at each time point assessed were determined prior to performing the concentration response studies. Briefly, the NCI60 human tumor lines were grown as monolayers in RPMI 1640 medium supplemented with 10% FBS and 2 mmol/L L-glutamine.
An additional 2 lines were from the NCI60 cell line panel including melanomas, MALME-3M and SK-MEL-2. Pooled donor human umbilical vein endothelial cells (HUVEC, Lonza, cat. CC-2519) and human mesenchymal stem cells (hMSC, Lonza, cat. PT-2501) were purchased from Lonza (Walkersville, MD).
PDMR cell lines were grown in complete medium (DC medium): Dulbecco's modified Eagle's medium (DMEM)/F12 supplemented with 5% fetal bovine serum (FBS), 2 mM L-glutamine, 100 U/mL penicillin and 100 µg/ml streptomycin, 0.4 µg/ml hydrocortisone, 10 ng/ml epidermal growth factor (EGF) recombinant human protein, 24 µg/mL adenine, and 0.1 mg/mL primocin. During culture from frozen stock vials, PDMR cells were cultured in the same medium containing 10 µM Y-27632 (see Table 3). The PDCs were cultured in complete DMEM/F12 media without 10 microM Y-27632 dihydrochloride for at least two passages prior to the screen. The pooled donor HUVEC and hMSC were cultured in endothelial cell growth medium 2 (PromoCell, Heidelberg, Germany, cat. C-22011) and mesenchymal stem cell growth medium 2 (PromoCell, cat. C-28009), respectively. For all experiments, HUVEC and hMSC were used at passages </=5.
For the pre-screen, cell seeding densities were determined from a titration spanning the range from 5,000 to 313 cells per well. The mct-spheroids including 60% malignant cells, 25% HUVEC and 15% MSC dispensed as a mixture into U-bottom Ultra-Low Attachment 384-well plates (Corning, NY)
High-throughput Drug Combination Screening.
Prior to their inoculation into 384-well plates, malignant cells, HUVEC, and hMSC were removed from T flasks using TrypLE express (Thermo Fisher Scientific, cat. 12605036) and harvested by centrifugation for 5 min at 233 x g. […]
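Further: spheroids exposed to drugs for seven days before the viability read.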

## CC(=O)Nc1cccc(-n2c(=O)n(C3CC3)c(=O)c3c(Nc4ccc(I)cc4F)n(C)c(=O)c(C)c32)c1 + CC(C)NCC(C(=O)N1CCN(c2ncnc3c2C(C)CC3O)CC1)c1ccc(Cl)cc1
Curve of first compound, second compound 0.3 µM
  IC50: 8.22 nM
Curve of first compound, second compound 0.949 µM
  IC50: 5.23 nM
Curve of first compound, second compound 3 µM
  IC50: 3.25 nM
Curve of first compound, second compound 9.49 µM
  IC50: 1.82 nM
Curve of first compound, second compound 30 µM
  IC50: 0.326 nM
Second compound 0.3 µM, first compound 94.9 pM
  viability, T/C: 101%
Second compound 0.3 µM, first compound 0.0003 µM
  viability, T/C: 86.7%
Second compound 0.3 µM, first compound 0.000949 µM
  viability, T/C: 67.2%
Second compound 0.3 µM, first compound 0.003 µM
  viability, T/C: 73.8%
Second compound 0.3 µM, first compound 0.00949 µM
  viability, T/C: 48.8%
Second compound 0.3 µM, first compound 0.03 µM
  viability, T/C: 28.6%
Second compound 0.949 µM, first compound 94.9 pM
  viability, T/C: 80.8%
Second compound 0.949 µM, first compound 0.0003 µM
  viability, T/C: 84.8%
Second compound 0.949 µM, first compound 0.000949 µM
  viability, T/C: 77.1%
Second compound 0.949 µM, first compound 0.003 µM
  viability, T/C: 55.4%
Second compound 0.949 µM, first compound 0.00949 µM
  viability, T/C: 43.2%
Second compound 0.949 µM, first compound 0.03 µM
  viability, T/C: 26%
Second compound 3 µM, first compound 94.9 pM
  viability, T/C: 77.9%
Second compound 3 µM, first compound 0.0003 µM
  viability, T/C: 61.6%
Second compound 3 µM, first compound 0.000949 µM
  viability, T/C: 64%
Second compound 3 µM, first compound 0.003 µM
  viability, T/C: 48.9%
Second compound 3 µM, first compound 0.00949 µM
  viability, T/C: 43.5%
Second compound 3 µM, first compound 0.03 µM
  viability, T/C: 27.1%
Second compound 9.49 µM, first compound 94.9 pM
  viability, T/C: 72.6%
Second compound 9.49 µM, first compound 0.0003 µM
  viability, T/C: 69.3%
Second compound 9.49 µM, first compound 0.000949 µM
  viability, T/C: 53.5%
Second compound 9.49 µM, first compound 0.003 µM
  viability, T/C: 45.5%
Second compound 9.49 µM, first compound 0.00949 µM
  viability, T/C: 33%
Second compound 9.49 µM, first compound 0.03 µM
  viability, T/C: 18.4%
Second compound 30 µM, first compound 94.9 pM
  viability, T/C: 45.8%
Second compound 30 µM, first compound 0.0003 µM
  viability, T/C: 55.1%
Second compound 30 µM, first compound 0.000949 µM
  viability, T/C: 45.3%
Second compound 30 µM, first compound 0.003 µM
  viability, T/C: 27.8%
Second compound 30 µM, first compound 0.00949 µM
  viability, T/C: 29.6%
Second compound 30 µM, first compound 0.03 µM
  viability, T/C: 33.6%

## Cc1nc(NC(=O)N2CCCC2C(N)=O)sc1-c1ccnc(C(C)(C)C(F)(F)F)c1 (configuration not stated)
Compound 0.0316 µM
  viability, T/C: 100% and 88.8%
Compound 0.1 µM
  viability, T/C: 89.7% and 95.4%
Compound 0.316 µM
  viability, T/C: 80% and 70.7%
Compound 1 µM
  viability, T/C: 61.8% and 64.2%
Compound 3.16 µM
  viability, T/C: 64% and 56.8%
Compound 10 µM
  viability, T/C: 42.8% and 50.4%
Curve of compound
  IC50: 6270 nM and > 10000 nM
